According to patent US12391701B2, “Chromene-based compounds, methods and uses thereof” (University of Minho, priority 2019, dated 2025):

What was measured:
[1] = test system: cediranib-resistant Caki-2 cell line; test: Cell viability, cediranib-resistant Caki-2; format: cell-based; details: for IC50: Homo sapiens, CAKI-2
Description: In an embodiment, the antiproliferative activity of compounds MC421, MC409, MC408, MC350, MC416, MC410, MC411, MC415 and MC413 was further determined against drug-resistant renal carcinoma cell lines.
In an embodiment, cell viability assays were performed. MCF-7, Hs578T and MCF-10A cells were plated in triplicate in 96-multiwell culture plates, at 3000 cells per mL, or 5000 cells per mL for MDA-MB-468 (100 μL/well). The cells were then allowed to adhere in complete medium, over a period of 18-20 hours. Cells were subsequently treated with 7 different concentrations (from 0.1 to 40 μM or 5 to 60 μM) of compounds or control in fresh medium. HL-60, KG-1 and Jurkat cell lines were plated in 96-multiwell culture plates at 50.000 cells/100 μL per well and treated with different concentrations (from 0.001 to 2 μM) of the compounds described (or control). Cells were plated, in triplicate, at an initial density of 2000 cells/well for GAMG, 4000 cells/well for GL18 and 6000 cells/well for U87MG, in 96-well plates, and allowed to adhere for 18-20 hours. Cells were then treated with different concentrations of the compounds (0.005 to 100 μM) or with control. A498 and 786-O cells were plated at 2000 cells per mL, Caki-2 cells were plated at 3000 cells per mL and HK2 cells were plated at 2000 cells per mL in triplicate, in 96-multiwell culture plates (100 μL/well), and allowed to adhere over a period of 18-20 hours in complete medium. The cells were then treated with 7 different concentrations (from 0.1 to 40 μM or 5 to 60 μM) of compounds or control in fresh medium. After 72 h of incubation, the MTS (Promega) reduction assay was performed according to manufacturer's instructions to indirectly assess the percentage of viable cells through metabolic cell viability. After 1-2 hours of incubation with MTS in a humidified atmosphere at 37° C. and 5% CO2, absorbance was measured at 490 nm. For RCC cell lines, sulforhodamine B assay was used according to manufacturer's instructions. The data was log-transformed and the concentration of each compound that decreased the number of viable cells to 50% (IC50) relative to control was calculated using the GraphPad Prism 6 software.

TNBC cell line Hs578t = test: Cell viability assay (MTS), Hs578t; format: cell-based; details: Homo sapiens, Hs-578T; 72 h incubation
Excerpt: In an embodiment, for a comparison study, monomers and respective dimers were selected and further evaluated in Hs578t and MDA-MB-468 breast cell lines. […] These cell lines correspond to the basal-like subtype of breast cancer, included in the known triple negative subtype, since they are negative for Estrogen receptor (ER), progesterone receptor (PR) and Human epidermal growth factor receptor 2 (HER2) molecular markers. The clinical behaviour of these breast cancer subtype is very aggressive and there is still no specific molecular therapy available.
In an embodiment, three human breast cancer cell lines Hs578T, MDA-MB-468 and MCF-7, and a normal breast cell line MCF-10A, were obtained from ATCC (American Type Culture Collection). The cancer cell lines were cultured in Dulbecco's modified Eagle medium, 4.5 g/l glucose (DMEM, Gibco) supplemented with 10% heating inactivated Fetal Bovine Serum (FBS, Gibco) and 1% antibiotic solution (Penicillin-Streptomycin, Gibco). The normal cell line was cultured in Dulbecco's Modified Eagle Medium: Nutrient Mixture F-12 (DMEM/F12, Gibco) supplemented with 5% heating inactivated FBS (Gibco), 1% antibiotic solution (Penicillin-Streptomycin, Gibco), 1% steroid hormone (Hydrocortisone, Sigma-Aldrich), 0.1% peptide hormone (Insulin, Sigma-Aldrich) and 0.01% protein complex (Cholera Toxin, Gibco). Two distinct human acute myeloid leukemia (AML) cell lines, HL-60 (FAB M2) and KG-1 (erythroleukemia-FAB M6), and one human lymphoblastic leukemia (ALL) cell line, Jurkat (T cell type), were also used. These three cell lines were obtained from German Collection of Microorganisms and Cell cultures (DMSZ®, Deutsche Sammlung von Mikroorganismen and Zellkulturen in German). Cells were cultured in RPMI 1640 medium (Biochrom®-Merck Millipore) supplemented with 10% heating inactivated FBS (Biochrom®-Merck Millipore) and 1% antibiotic/antimitotic mixture (Invitrogen®). Three human glioblastoma (GBM) cell line models, two established and commercially available cell lines (U87MG and GAMG, kind gift from Rui M. Reis) and one primary GBM culture (GLIB) were also used. GBM cells were cultures in DMEM (Biochrom-Merck Millipore), all supplemented with 10% FBS. The Renal cell carcinoma cell lines A498, 786-O, Caki-2 and HK2 were obtained from ATCC. The cancer cell line A498 was cultured in MEM medium (Biochrom®-Merck Millipore), 786-O was cultured in RPMI 1640 medium (Biochrom®-Merck Millipore), Caki-2 was cultured in Mc Coys medium (Biochrom®-Merck Millipore) and HK2 was cultured in RPMI 1640 medium (Biochrom®-Merck Millipore). All the media were supplemented with 10% heat inactivated FBS (Biochrom®-Merck Millipore) and 1% antibiotic/antimitotic mixture (Invitrogen®). All cells were grown in a humidified incubator at 37° C. and 5% CO2. For all assays, DMSO (Dimethyl Sulfoxide, Sigma-Aldrich) controls were used.
In an embodiment, cell viability assays were performed. MCF-7, Hs578T and MCF-10A cells were plated in triplicate in 96-multiwell culture plates, at 3000 cells […], or 5000 cells […] for MDA-MB-468 (100 μL/well). The cells were then allowed to adhere in complete medium, over a period of 18-20 hours. Cells were subsequently treated with 7 different concentrations (from 0.1 to 40 μM or 5 to 60 μM) of compounds or control in fresh medium. HL-60, KG-1 and Jurkat cell lines were plated in 96-multiwell culture plates at 50.000 cells/100 μL per well and treated with different concentrations (from 0.001 to 2 μM) of the compounds described (or control). Cells were plated, in triplicate, at an initial density of 2000 cells/well for GAMG, 4000 cells/well for GL18 and 6000 cells/well for U87MG, in 96-well plates, and allowed to adhere for 18-20 hours. Cells were then treated with different concentrations of the compounds (0.005 to 100 μM) or with control. […]

Row | SMILES | Selectivity Index (vs HK2) Caki-2 Resistant [1] | IC50 [1] | IC50 (TNBC cell line Hs578t)
1 | COc1cccc2c1Oc1nc(-c3ccccc3)[nH]c1C2 [MC350, 5-methoxy-2-phenyl-3,9-dihydrochromeno[2,3-d]imidazoles] | 32.28 | 0.646 µM | –
2 | COc1cccc2c1Oc1nc(-c3ccc(F)cc3)[nH]c1C2C1c2cccc(OC)c2Oc2nc(-c3ccc(F)cc3)[nH]c21 (stereo not drawn) [MC406, 2,2′-bis(4-fluorophenyl)-5,5′-dimethoxy-1,1,9,9′-tetrahydro-9,9′-bichromeno[2,3-]imidazoles] | – | – | 53 nM
3 | COc1cccc2c1Oc1nc(-c3ccc(Br)cc3)[nH]c1C2 [MC408, 2-(4-bromophenyl)-5-methoxy-3,9-dihydrochromeno[2,3-d]imidazoles] | 123.79 | 0.028 µM | 47 nM
4 | COc1cccc2c1Oc1nc(-c3ccc(F)cc3)[nH]c1C2 [MC409, 2-(4-fluorophenyl)-5-methoxy-3,9-dihydrochromeno[2,3-d]imidazoles] | 9.56 | 0.33 µM | 270 nM
5 | COc1cccc2c1Oc1nc(-c3cc(F)cc(F)c3O)[nH]c1C2 [MC410, 2,4-difluoro-6-(5-methoxy-3,9-dihydrochromeno[2,3-d]imidazol-2-yl)phenol] | 2.60 | 6.41 µM | > 20000 nM
6 | COc1ccccc1-c1nc2c([nH]1)Cc1cccc(OC)c1O2 [MC411, 5-methoxy-2-(2-methoxyphenyl)-3,9-dihydrochromeno[2,3-]imidazoles] | 1.92 | 1.62 µM | 8610 nM
7 | COc1cccc2c1Oc1nc(-c3ccc(O)cc3)[nH]c1C2 [MC413, 4-(5-methoxy-3,9-dihydrochromeno[2,3-d]imidazol-2-yl)phenol] | 29.6 | 0.335 µM | 990 nM
8 | CCOc1ccc(-c2nc3c([nH]2)Cc2cccc(OC)c2O3)cc1 [MC415, 2-(4-ethoxyphenyl)-5-methoxy-3,9-dihydrochromeno[2,3-d]imidazoles] | 64.5 | 0.08 µM | 580 nM
9 | COc1ccc(-c2nc3c([nH]2)Cc2cccc(OC)c2O3)c(Br)c1O [MC416, 2-bromo-6-methoxy-3-(5-methoxy-3,9-dihydrochromeno[2,3-]imidazol-2-yl)phenol] | 1.97 | 1.59 µM | 3160 nM
10 | COc1cccc2c1Oc1nc(-c3ccc(Br)cc3)[nH]c1C2C1c2cccc(OC)c2Oc2nc(-c3ccc(Br)cc3)[nH]c21 (stereo not drawn) [MC421, 2,2′-bis(4-bromophenyl)-5,5′-dimethoxy-1,1,9,9′-tetrahydro-9,9′-bichromeno[2,3-]imidazoles] | 123.50 | 0.02 µM | 35 nM
